From US8633206B2, “Pyrrolo[2,3-D]pyrimidine compounds” (Pfizer Inc., priority 2009, dated 2014)

Legend:
Format in all cases: biochemical
JAK1 = JAK1 (Homo sapiens (Human), UniProt P23458); assay: JAK enzymatic assay (peptide mobility shift), JAK1; conditions: recombinant JAK1 20 nM, IRS-1 peptide, 240 minutes
Protocol: (§1) Recombinant JAK1 (Catalog Number PV4775), JAK2 (Catalog Number PV4210) and JAK3 (Catalog Number PV3855) were purchased from (Invitrogen Corporation, Madison, Wis.). […] Adenosine 5′-triphosphate (ATP) was obtained from (Sigma Chemical Company, St. Louis, Mo.). […] Coating Reagent 3 was purchased from (Caliper Life Sciences, Hopkinton, Mass.).
(§2) Compounds were diluted serially in 100% dimethyl sulfoxide and tested in an 11 point dose response in duplicate or quadruplicate (200 nl of compound/DMSO was added per 10 L reaction). […] The assay was run for 240 minutes for JAK1, 150 minutes for JAK2, 90 minutes for JAK3 and 70 minutes for Tyk2. […] The plates were placed on a LabChip 3000 (LC3000) instrument from (Caliper Life Sciences) to measure the formation of phosphorylated peptide. Data was analyzed using Hits Well Analyzer Software from (Caliper Life Sciences) to obtain the amount of product formed.
(§3) Data was then imported into an internal application where each data point is expressed as % inhibition based on uninhibited and no enzyme controls. Dose-response data is then fit using a 4 parameter logistic equation (Equation 1) to determine an IC50.

JAK2 = JAK2 (Homo sapiens (Human), UniProt O60674); assay: JAK enzymatic assay (peptide mobility shift), JAK2; conditions: recombinant JAK2 2 nM, JAKtide peptide, 150 minutes
Sequence of JAK2 (O60674 808-1132): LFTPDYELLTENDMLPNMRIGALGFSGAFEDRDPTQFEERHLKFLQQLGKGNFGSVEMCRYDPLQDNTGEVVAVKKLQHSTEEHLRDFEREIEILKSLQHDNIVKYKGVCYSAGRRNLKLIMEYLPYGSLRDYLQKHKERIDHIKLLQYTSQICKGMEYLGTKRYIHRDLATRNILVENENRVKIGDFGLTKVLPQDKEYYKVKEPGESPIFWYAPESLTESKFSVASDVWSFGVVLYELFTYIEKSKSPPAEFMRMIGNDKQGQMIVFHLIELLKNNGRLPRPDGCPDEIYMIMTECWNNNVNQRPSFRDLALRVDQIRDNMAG
Text: Recombinant JAK1 (Catalog Number PV4775), JAK2 (Catalog Number PV4210) and JAK3 (Catalog Number PV3855) were purchased from (Invitrogen Corporation, Madison, Wis.). Tyk2 (His-Tyk2 (888-1182, C936S, C1142S)) used in this study was expressed and purified at Pfizer Laboratories. Adenosine 5′-triphosphate (ATP) was obtained from (Sigma Chemical Company, St. Louis, Mo.). […] Coating Reagent 3 was purchased from (Caliper Life Sciences, Hopkinton, Mass.).
A peptide mobility shift assay was used to quantify the phosphorylation of the JAKtide (JAK2 and JAK3) or the IRS-1 peptide (JAK1 and Tyk2). Reactions were carried out in a 384-well plate (Matrical MP-101) in a 10 L total volume. […] Compounds were diluted serially in 100% dimethyl sulfoxide and tested in an 11 point dose response in duplicate or quadruplicate (200 nl of compound/DMSO was added per 10 L reaction). The reactions were initiated by the addition of enzyme to the final concentration of 2 nM JAK2, 1 nM JAK3, 12 nM Tyk2 or 20 nM JAK1. The assay was run for 240 minutes for JAK1, 150 minutes for JAK2, 90 minutes for JAK3 and 70 minutes for Tyk2. The assays were stopped at the specified times with 20 uL of 140 mM HEPES, 22.5 mM EDTA and 0.15% Coating Reagent 3. The plates were placed on a LabChip 3000 (LC3000) instrument from (Caliper Life Sciences) to measure the formation of phosphorylated peptide. Data was analyzed using Hits Well Analyzer Software from (Caliper Life Sciences) to obtain the amount of product formed.
as §3

JAK3 = JAK3 (Homo sapiens (Human), UniProt P52333); assay: JAK enzymatic assay (peptide mobility shift), JAK3; conditions: recombinant JAK3 1 nM, JAKtide peptide, 90 minutes
Sequence of JAK3 (P52333 781-1124): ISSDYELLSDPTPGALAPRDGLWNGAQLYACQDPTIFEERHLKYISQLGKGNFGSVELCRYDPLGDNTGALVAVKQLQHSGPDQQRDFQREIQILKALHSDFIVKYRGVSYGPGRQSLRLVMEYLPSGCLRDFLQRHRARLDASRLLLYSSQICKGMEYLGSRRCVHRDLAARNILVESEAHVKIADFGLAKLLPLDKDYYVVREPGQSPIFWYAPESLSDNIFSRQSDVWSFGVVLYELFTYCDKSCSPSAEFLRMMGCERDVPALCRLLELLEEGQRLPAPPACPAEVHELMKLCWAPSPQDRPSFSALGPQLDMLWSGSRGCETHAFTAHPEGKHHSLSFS
Protocol: as §1, §2, §3

Sequence of JAK1 (P23458 whole entry): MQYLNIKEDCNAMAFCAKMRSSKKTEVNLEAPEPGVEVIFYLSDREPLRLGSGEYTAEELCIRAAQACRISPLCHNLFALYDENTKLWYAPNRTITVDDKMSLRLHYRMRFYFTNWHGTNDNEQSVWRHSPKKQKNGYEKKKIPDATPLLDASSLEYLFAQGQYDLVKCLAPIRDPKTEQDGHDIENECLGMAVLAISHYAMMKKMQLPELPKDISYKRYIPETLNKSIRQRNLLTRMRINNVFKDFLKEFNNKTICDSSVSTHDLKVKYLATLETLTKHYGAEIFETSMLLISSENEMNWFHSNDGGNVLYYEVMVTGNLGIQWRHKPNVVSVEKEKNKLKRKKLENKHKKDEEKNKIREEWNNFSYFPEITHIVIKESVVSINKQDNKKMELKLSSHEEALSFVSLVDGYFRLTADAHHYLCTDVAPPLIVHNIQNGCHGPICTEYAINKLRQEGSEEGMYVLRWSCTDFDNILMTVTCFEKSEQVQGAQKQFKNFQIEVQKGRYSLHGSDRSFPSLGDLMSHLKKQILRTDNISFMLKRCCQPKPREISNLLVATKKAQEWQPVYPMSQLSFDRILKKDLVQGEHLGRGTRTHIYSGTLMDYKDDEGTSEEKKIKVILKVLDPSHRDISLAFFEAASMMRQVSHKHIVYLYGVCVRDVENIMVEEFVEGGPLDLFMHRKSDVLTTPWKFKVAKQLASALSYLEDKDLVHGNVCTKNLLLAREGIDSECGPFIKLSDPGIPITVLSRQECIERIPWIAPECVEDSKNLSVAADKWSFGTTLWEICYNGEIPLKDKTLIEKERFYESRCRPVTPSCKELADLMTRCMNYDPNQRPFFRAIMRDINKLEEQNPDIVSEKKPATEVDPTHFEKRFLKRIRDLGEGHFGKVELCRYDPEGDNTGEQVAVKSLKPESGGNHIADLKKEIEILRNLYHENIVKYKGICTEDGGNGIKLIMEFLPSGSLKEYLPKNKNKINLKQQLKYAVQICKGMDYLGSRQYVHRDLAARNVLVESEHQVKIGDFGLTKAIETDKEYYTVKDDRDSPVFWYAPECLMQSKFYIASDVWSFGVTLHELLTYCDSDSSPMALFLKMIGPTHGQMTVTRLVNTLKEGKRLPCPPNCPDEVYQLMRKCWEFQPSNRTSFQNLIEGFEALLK

IC50 (JAK1)	IC50 (JAK2)	IC50 (JAK3)	SMILES
10.4 nM	32.2 nM	275 nM	CN(c1ncnc2[nH]ccc12)[C@H]1CC[C@H](CS(=O)(=O)N2C[C@H](CO)[C@H](S(C)(=O)=O)C2)CC1 [Example 33, [(3R,4S)-1-[({trans-4-[methyl(7H-pyrrolo[2,3-d]pyrimidin-4-yl)amino]-cyclohexyl}methyl)sulfonyl]-4-(methylsulfonyl)-pyrrolidin-3-yl]methanol]
7.35 nM	16.7 nM	217 nM	CN(c1ncnc2[nH]ccc12)[C@H]1CC[C@H](CS(=O)(=O)N2CC[C@@H](F)C2)CC1 [Example 34, N-[trans-4-({[(3R)-3-fluoropyrrolidin-1-yl]sulfonyl}methyl)cyclo-hexyl]-N-methyl-7H-pyrrolo-[2,3-d]pyrimidin-4-amine]
11.1 nM	52.6 nM	447 nM	CN(c1ncnc2[nH]ccc12)[C@H]1CC[C@H](CS(=O)(=O)N2CC[C@@H](CC#N)C2)CC1 [Example 35, {(3S)-1-[({trans-4-[methyl(7H-pyrrolo[2,3-d]pyrimidin-4-yl)amino]cyclohexyl}methyl)-sulfonyl]pyrrolidin-3-yl}acetonitrile]
5.35 nM	18.7 nM	123 nM	CN(c1ncnc2[nH]ccc12)[C@H]1CC[C@H](CS(=O)(=O)N2C[C@@H](O)[C@H](C#N)C2)CC1 [Example 36, (3S,4S)-4-hydroxy-1-[({trans-4-[methyl(7H-pyrrolo[2,3-d]pyrimidin-4-yl)amino]cyclohexyl}methyl)-sulfonyl]pyrrolidine-3-carbonitrile]
11.4 nM	126 nM	1920 nM	CC1CN(S(=O)(=O)C[C@H]2CC[C@H](N(C)c3ncnc4[nH]ccc34)CC2)CCN1C (stereo partly drawn) [Example 38, N-(trans-4-{[(3,4-dimethylpiperazin-1-yl)-sulfonyl]methyl}cyclo-hexyl)-N-methyl-7H-pyrrolo-[2,3-d]pyrimidin-4-amine]
23.4 nM	75.4 nM	393 nM	CN(c1ncnc2[nH]ccc12)[C@H]1CC[C@@H](CS(=O)(=O)N2CCC[C@H](C#N)C2)CC1 [Example 39, 1-[({cis-4-[methyl(7H-pyrrolo[2,3-d]pyrimidin-4-yl)amino]cyclohexyl}-methyl)sulfonyl]piperidine-3-carbonitrile]
1.44 nM	8.04 nM	105 nM	CN(c1ncnc2[nH]ccc12)[C@H]1CC[C@H](CS(=O)(=O)N2CCC[C@@H](O)C2)CC1 [Example 40, (3R)-1-[({trans-4-[methyl(7H-pyrrolo[2,3-d]pyrimidin-4-yl)amino]-cyclohexyl}methyl)sulfonyl]piperidin-3-ol]
22.1 nM	107 nM	634 nM	COC1CCN(S(=O)(=O)C[C@H]2CC[C@H](N(C)c3ncnc4[nH]ccc34)CC2)CC1 [Example 41, N-(trans-4-{[(4-methoxy-piperidin-1-yl)-sulfonyl]-methyl}cyclohexyl)-N-methyl-7H-pyrrolo[2,3-d]-pyrimidin-4-amine]
16.5 nM	66.9 nM	431 nM	CN(c1ncnc2[nH]ccc12)[C@H]1CC[C@H](CS(=O)(=O)N2CCC(C#N)CC2)CC1 [Example 42, 1-[({trans-4-[methyl(7H-pyrrolo[2,3-d]pyrimidin-4-yl)amino]cyclohexyl}-methyl)sulfonyl]piperidine-4-carbonitrile]
12.8 nM	71 nM	434 nM	COCC1CCN(S(=O)(=O)C[C@H]2CC[C@H](N(C)c3ncnc4[nH]ccc34)CC2)CC1 [Example 43, N-[trans-4-({[4-(methoxy-methyl)piperidin-1-yl]-sulfonyl}methyl)-cyclohexyl]-N-methyl-7H-pyrrolo[2,3-d]pyrimidin-4-amine]
8.01 nM	61.1 nM	353 nM	CCC1(C(N)=O)CCN(S(=O)(=O)C[C@H]2CC[C@H](N(C)c3ncnc4[nH]ccc34)CC2)CC1 [Example 44, 4-ethyl-1-[({trans-4-[methyl(7H-pyrrolo[2,3-d]-pyrimidin-4-yl)amino]-cyclohexyl}methyl)sulfonyl] piperidine-4-carboxarnide]
1.59 nM	8.97 nM	39.6 nM	COCCC1(C(N)=O)CCN(S(=O)(=O)C[C@H]2CC[C@H](N(C)c3ncnc4[nH]ccc34)CC2)CC1 [Example 45, 4-(2-methoxyethyl)-1-[({trans-4-[methyl(7H-pyrrolo[2,3-d]pyrimidin-4-yl)amino]cyclohexyl}-methyl)sulfonyl]piperidine-4-carboxamide]
5.98 nM	17.7 nM	167 nM	CN(c1ncnc2[nH]ccc12)[C@H]1CC[C@H](CS(=O)(=O)N2CCC(Cc3ncccn3)CC2)CC1 [Example 46, N-methyl-N-[trans-4-({[4-(pyrimidin-2-ylmethyl)-piperidin-1-yl]sulfonyl}-methyl)cyclohexyl]-7H-pyrrolo[2,3-d]pyrimidin-4-amine]
13.5 nM	68.4 nM	397 nM	CN(c1ncnc2[nH]ccc12)[C@H]1CC[C@H](CS(=O)(=O)N2CCC(C(C)(C)O)CC2)CC1 [Example 47, 2-{1-[({trans-4-[methyl(7H-pyrrolo[2,3-d]pyrimidin-4-yl)amino]cyclohexyl}methyl)-sulfonyl]piperidin-4-yl}propan-2-ol]
22.7 nM	84.9 nM	753 nM	Cc1ccc(CC2CCN(S(=O)(=O)C[C@H]3CC[C@H](N(C)c4ncnc5[nH]ccc45)CC3)CC2)nn1 [Example 48, N-methyl-N-{trans-4-[({4-[(6-methylpyridazin-3-yl)methyl]piperidin-1-yl}sulfonyl)methyl]cyclo-hexyl}-7H-pyrrolo[2,3-d]-pyrimidin-4-amine]
8.33 nM	65.8 nM	581 nM	CN(c1ncnc2[nH]ccc12)[C@H]1CC[C@H](CS(=O)(=O)N2CCC(c3nc(CS(C)(=O)=O)no3)CC2)CC1 [Example 50, N-methyl-N-(trans-4-{[(4-{3-[(methylsulfonyl)-methyl]-1,2,4-oxadiazol-5-yl}piperidin-1-yl)sulfonyl]-methyl)cyclohexyl)-7H-pyrrolo[2,3-d]pyrimidin-4-amine]
16.4 nM	85.1 nM	781 nM	CC1CCN(S(=O)(=O)C[C@H]2CC[C@H](N(C)c3ncnc4[nH]ccc34)CC2)CC1 [Example 51, N-methyl-N-(trans-4-{[(4-methylpiperidin-1-yl)sulfonyl]-methyl}cyclohexyl)-7H-pyrrolo[2,3-d]pyrimidin-4-amine]
22.6 nM	115 nM	1240 nM	CCN(CC)C(=O)C1CCN(S(=O)(=O)C[C@H]2CC[C@H](N(C)c3ncnc4[nH]ccc34)CC2)CC1 [Example 52, N,N-diethyl-1-[({trans-4-[methyl(7H-pyrrolo[2,3-d]-pyrimidin-4-yl)amino]-cyclohexyl}methyl)sulfonyl] piperidine-4-carboxamide]
22 nM	44.9 nM	377 nM	CNC(=O)C1CCN(S(=O)(=O)C[C@H]2CC[C@H](N(C)c3ncnc4[nH]ccc34)CC2)CC1 [Example 54, N-methyl-1-[({trans-4-[methyl(7H-pyrrolo[2,3-d]-pyrimidin-4-yl)amino]-cyclohexyl}methyl)sulfonyl] piperidine-4-carboxamide]
20.1 nM	84.8 nM	681 nM	CN(c1ncnc2[nH]ccc12)[C@H]1CC[C@H](CS(=O)(=O)N2CCC(CC(N)=O)CC2)CC1 [Example 55, 2-{1-[({trans-4-[methyl(7H-pyrrolo[2,3-d]pyrimidin-4-yl)amino]cyclohexyl}-methyl)sulfonyl]piperidin-4-yl}-acetamide]
4.07 nM	59.8 nM	170 nM	CN(c1ncnc2[nH]ccc12)[C@H]1CC[C@H](CS(=O)(=O)N2CCC(COCC3CC3)CC2)CC1 [Example 56, N-{trans-4-[({4-[(cyclopropyl-methoxy)-methyl]piperidin-1-yl}-sulfonyl)-methyl]-cyclohexyl}-N-methyl-7H-pyrrolo[2,3-d]-pyrimidin-4-amine]
